Test results taken from article PMC12386934, “Characteristics and Potential of KSL, KSL-W, and Dadapin-1 Antimicrobial Peptides for Preventing Infections of Orthopedic Prosthetic Devices: Identifying the Most Robust Candidate” (International Journal of Molecular Sciences, 2025).
Converted amounts (≈) assume the structure as drawn. Blank lines part the entries; values can stand above or below the compound they belong to. Where a SMILES comes first, the peptide text is derived from it.

Key:
Assay type in all cases: cell-based
entire panel of strains = experiment: MBC, all strains of the panel; conditions: undiluted MHB II, re-tested plating 10 μL
Method: For assessing the MBC, 10 μL of bacterial suspensions was taken from wells corresponding to MIC, 2× MIC, and 4× MIC and then plated on MHA plates. After one day of incubation at 37 °C, the agar plates were examined for bacterial growth. The MBC was determined as the lowest dilution causing absence of bacterial colonies growth on the plate.

E. coli cra4038 (EC) [1] = tested on: E. coli cra4038 (EC)
From the text: (§1) The experimental scheme reported in Figure 6 helped to simplify and optimize the in vitro testing of the antibacterial activity of the different AMPs. The initial transparent microtiter plate for the determination of the minimum inhibitory concentration (MIC) by optical density (OD) measurement was conveniently used as a starting point not only for the alterative determination of the MIC by luminescence but also for the minimum bactericidal concentration (MBC) and for the minimum biofilm inhibitory concentration (MBIC), as explained below. For every test peptide, at least three independent experiments were performed on each bacterial strain per test condition (100% MHB and 20% MHB). The sole exception to this rule was when MIC values were on rare occasions found to be greater than 500 µg/mL. Under these circumstances, two consecutive experiments were performed to confirm the results. In this case, the antibacterial activity was considered insignificant and the third experiment was generally considered unnecessary.
(§2) The antibacterial properties of the test AMPs were assayed under two distinct conditions of bacterial culture: (i) with bacteria cultured in undiluted Mueller–Hinton II Broth (MHB II) and (ii) with bacteria cultured in diluted MHB II as earlier described in Campoccia et al.. Briefly, a few colonies of each bacterial strain, taken from overnight cultures on Mueller–Hinton Agar plates (MHA, PO50007A, ThermoScientific, Thermo Fisher Scientific, Segrate, Italy), were resuspended in Mueller–Hinton II Broth (MHB II, 24107, Liofilchem, Roseto degli Abruzzi, Italy), either undiluted or at a 20% dilution in deionized water. The concentration of bacteria was adjusted to approximately 10^8 CFU/mL, as estimated by optical density reading at 625 nm, using a Hewlett Packard G1103A spectrophotometer (Waldbronn, Germany). The bacterial suspension was further diluted 1:100 in 100% or 20% MHB II. […]
(§3) For assessing the MBC, 10 μL of bacterial suspensions was taken from wells corresponding to MIC, 2× MIC, and 4× MIC and then plated on MHA plates. […] The MBC was determined as the lowest dilution causing absence of bacterial colonies growth on the plate.
(§4) In order to assess the extent of the interference of the culture medium composition with the antibacterial activity of the three peptides, a “Rate of Abatement” of the bactericidal properties (RoA) was calculated using the following formula (Equation (1)):RoA = MBCMHB/MBC20% MHB(1)
(§5) RoA indicates the fold increases in the MBC when tested in undiluted medium […], i.e., with maximal interference of broth polyanionic substances, with respect to diluted medium […]. […] A more versatile measure to express the loss of activity was calculated as follows. […]

[2] = tested on: E. faecalis cra4033 (EF 02)
From the text: as §1, §2, §3, §4, §5

[3] = tested on: S. epidermidis cra4029 (SE 02)
From the text: as §1, §2, §3, §4, §5

[4] = tested on: E. faecalis cra4024 (EF 01)
From the text: as §1
(§6) The antibacterial properties of the test AMPs were assayed under two distinct conditions of bacterial culture: (i) with bacteria cultured in undiluted Mueller–Hinton II Broth (MHB II) and (ii) with bacteria cultured in diluted MHB II as earlier described in Campoccia et al.. Briefly, a few colonies of each bacterial strain, taken from overnight cultures on Mueller–Hinton Agar plates (MHA, PO50007A, ThermoScientific, Thermo Fisher Scientific, Segrate, Italy), were resuspended in Mueller–Hinton II Broth (MHB II, 24107, Liofilchem, Roseto degli Abruzzi, Italy), either undiluted or at a 20% dilution in deionized water. The concentration of bacteria was adjusted to approximately 10^8 CFU/mL, as estimated by optical density reading at 625 nm, using a Hewlett Packard G1103A spectrophotometer (Waldbronn, Germany). The bacterial suspension was further diluted 1:100 in 100% or 20% MHB II.
(§7) Serial 1:2 dilutions of all the test peptides were prepared in sterile deionized water starting from a stock solution of 1 mg/mL. Microtiter plates (96-Well CytoOne® Plate, CC7672-7596, Starlab S.r.l., Milano, Italy) were prepared by adding a volume of 100 µL of inoculum to 100 µL of treatment. Each AMP dilution was assayed in triplicate; each microplate included triplicate wells for the blank (100 µL of sterile distilled water and 100 µL of sterile MHB II), and 3 to 6 wells for reference control of 100% growth (100 µL of sterile deionized water and 100 µL of MHB II inoculated with the bacterium). Positive controls were performed in triplicate wells with 100 µL of a 10 mg/mL gentamicin solution (G1272, Sigma Aldrich, Milan, Italy) and with 100 µL of a solution containing 10,000 units/mL of penicillin and 10,000 µg/mL of streptomycin (penicillin–streptomycin, 15140-122, Life Technologies, Monza, Italy).
(§8) After a 1-day incubation at 37 °C, the MIC was determined by two distinct methods: (1) optical density measurement and (2) bioluminescence reading. In the first case, the optical density of the microtiter plates was read directly at a wavelength of 600 nm and the MIC was estimated from the curves obtained by plotting the OD measurements. For the bioluminescence reading, after gentle resuspension, 100 µL of each treated culture was transferred to a new 96-well non-treated plate (236105/237105, Life Technologies, Monza, Italy) and the metabolic activity was determined by the kit Bac-Titer Glo Microbial Cell Viability Assay (G8231, Promega Italia S.r.l, Milan, Italy). Optical density and bioluminescence were read by a Modulus II multifunction plate reader (Turner BioSystems, Sunnyvale, CA, USA) or, alternatively, by an Infinite M Plex (Tecan Group Ltd., Männedorf, Switzerland). As earlier described in [24], in the case of luminescence, the MIC was identified from the curves of growth inhibition as the first concentration leading to a 1-log reduction in bacterial growth (i.e., 90% growth inhibition). […]

[5] = tested on: E. faecalis cra4033 (EF 02); remark: listed apart in the source
From the text: as §1, §6, §7, §8

[6] = tested on: S. aureus cra2198 (SA 02)
From the text: as §1, §6, §7, §8

[7] = tested on: S. epidermidis cra4029 (SE 02); remark: listed apart in the source
From the text: as §1, §6, §7, §8

[8] = tested on: E. faecalis cra4024 (EF 01); remark: listed apart in the source
From the text: as §1, §6, §7
(§9) The wells of the microplate, initially used for the determination of the MIC, were rinsed twice with 220 µL of phosphate-buffered solution (PBS) to remove loosely attached and planktonic bacteria. A total of 100 µL of fresh PBS and 100 µL of Bac-Titer Glo solution (G8231, Promega Italia S.r.l., Milan, Italy) were added to each well. After a 10 min incubation, a volume of 100 µL was transferred to a new microplate for luminescence determination as described above. As a general rule, the MBIC value was identified as the concentration at which a reduction of at least a log in the metabolic activity was observed.

[9] = tested on: S. epidermidis cra4034 (SE 01); conditions: cra4034 (SE 01, 24 h)
From the text: as §1, §6, §7, §9

E. coli cra4038 (EC) [10] = conditions: for LR, Log10 reduction in bacterial metabolism for a given MBIC: cra4038 (EC)
From the text: as §1, §6, §7, §9

[11] = tested on: S. aureus cra4030 (SA 01); conditions: for MBIC: cra4030 (SA 01, 24 h)
From the text: as §1, §6, §7, §9

[12] = tested on: S. aureus cra2198 (SA 02); conditions: cra2198 (SA 02, 24 h)
From the text: as §1, §6, §7, §9

[13] = tested on: S. aureus ATCC 25923 (SA 00); conditions: ATCC 25923, 24 h
From the text: as §1, §6, §7, §9

[14] = tested on: S. epidermidis cra4029 (SE 02); remark: listed apart in the source
From the text: as §1, §6, §7, §9

[15] = tested on: P. aeruginosa cra3840 (PA 02); conditions: for MBIC: cra3840 (PA 02, 24 h)
From the text: as §1, §6, §7, §9

[16] = tested on: P. aeruginosa cra4004 (PA 01)
From the text: as §1, §6, §7, §8

[17] = tested on: P. aeruginosa cra3840 (PA 02)
From the text: as §1, §6, §7, §8

[18] = tested on: E. faecalis cra4033 (EF 02); remark: listed apart in the source
From the text: as §1, §6, §7, §9

[19] = tested on: P. aeruginosa cra4004 (PA 01); remark: listed apart in the source
From the text: as §1, §6, §7, §9

Compound: CC(C)C[C@H](NC(=O)CN)C(=O)N[C@@H](CC(C)C)C(=O)N[C@@H](CCCNC(=N)N)C(=O)N[C@@H](C)C(=O)N[C@@H](CO)C(=O)N[C@@H](CO)C(=O)N[C@@H](CCCCN)C(=O)N[C@@H](Cc1c[nH]c2ccccc12)C(=O)NCC(=O)N[C@@H](CCCNC(=N)N)C(=O)N[C@@H](CCCCN)C(=O)N[C@@H](Cc1ccc(O)cc1)C(=O)N[C@@H](Cc1ccc(O)cc1)C(=O)N[C@H](C(=O)N[C@@H](CC(=O)O)C(=O)N[C@@H](CC(C)C)C(=O)N[C@@H](C)C(=O)NCC(=O)N[C@@H](CS)C(=O)N[C@@H](C)C(=O)N[C@@H](CCCCN)C(=O)N[C@@H](C)C(=O)O)C(C)C [Dadapin-1] (H-GLLRASSKWGRKYYVDLAGCAKA-OH)
MBC (entire panel of strains): exceeded 500 μg/mL
MBC (E. coli cra4038 (EC) [1]): 31.25 to 62.5 µg/mL
MBC [2]: >500 µg/mL
MBC [3]: 15.63 µg/mL (≈ 6.22 µM)
MIC [4]: >500 µg/mL
MIC [5]: >500 µg/mL
MIC [6]: 15.63 µg/mL (≈ 6.22 µM)
MIC [7]: > 500 µg/mL
LR, Log10 reduction in bacterial metabolism for a given MBIC ([8]; cra4024 (EF 01)): 3 LR
MBIC ([8]; cra4024 (EF 01, 24 h)): >500 µg/mL
MBIC [9]: 3.91 to 7.81 µg/mL
LR, Log10 reduction in bacterial metabolism for a given MBIC (E. coli cra4038 (EC) [10]): 2 LR
MBIC (E. coli cra4038 (EC) [10]; cra4038 (EC, 24 h)): 15.63–31.25 (31.25) 2LR: 31.25 μg/mL
MBIC [11]: 7.81 to 15.63 µg/mL
MBIC [12]: 500 µg/mL
MBIC [13]: 250 to 500 µg/mL
MBIC ([14]; cra4029 (SE 02, 24 h)): > 500 µg/mL
LR, Log10 reduction in bacterial metabolism for a given MBIC ([15]; cra3840 (PA 02)): 3 LR
MBIC [15]: >500 µg/mL

MIC [16]: 3.91 µg/mL (≈ 3.13 µM)
MIC [17]: 3.91 µg/mL (≈ 3.13 µM)
Compound: CC(C)[C@H](NC(=O)[C@H](CCCCN)NC(=O)[C@H](Cc1ccccc1)NC(=O)[C@@H](NC(=O)[C@@H](NC(=O)[C@H](CCCCN)NC(=O)[C@@H](N)CCCCN)C(C)C)C(C)C)C(=O)N[C@@H](CCCCN)C(=O)N[C@@H](Cc1ccccc1)C(=O)N[C@@H](CCCCN)C(=O)O [KSL] (H-KKVVFKVKFK-OH)
LR, Log10 reduction in bacterial metabolism for a given MBIC (E. coli cra4038 (EC) [10]): 3 LR
LR, Log10 reduction in bacterial metabolism for a given MBIC ([18]; cra4033 (EF 02)): 2 LR
MBIC ([18]; cra4033 (EF 02, 24 h)): 250 µg/mL
LR, Log10 reduction in bacterial metabolism for a given MBIC ([11]; cra4030 (SA 01)): 2 LR
MBIC [11]: 1.95 µg/mL
MBIC [12]: 31.25 µg/mL
LR, Log10 reduction in bacterial metabolism for a given MBIC ([14]; cra4029 (SE 02)): 2 LR
LR, Log10 reduction in bacterial metabolism for a given MBIC [19]: 3 LR
MBIC [15]: 3.91 µg/mL
